For series [1], the target named is T1, PLD1 (Homo sapiens, UniProt Q13393).
T1 sequence (Q13393 1-1074): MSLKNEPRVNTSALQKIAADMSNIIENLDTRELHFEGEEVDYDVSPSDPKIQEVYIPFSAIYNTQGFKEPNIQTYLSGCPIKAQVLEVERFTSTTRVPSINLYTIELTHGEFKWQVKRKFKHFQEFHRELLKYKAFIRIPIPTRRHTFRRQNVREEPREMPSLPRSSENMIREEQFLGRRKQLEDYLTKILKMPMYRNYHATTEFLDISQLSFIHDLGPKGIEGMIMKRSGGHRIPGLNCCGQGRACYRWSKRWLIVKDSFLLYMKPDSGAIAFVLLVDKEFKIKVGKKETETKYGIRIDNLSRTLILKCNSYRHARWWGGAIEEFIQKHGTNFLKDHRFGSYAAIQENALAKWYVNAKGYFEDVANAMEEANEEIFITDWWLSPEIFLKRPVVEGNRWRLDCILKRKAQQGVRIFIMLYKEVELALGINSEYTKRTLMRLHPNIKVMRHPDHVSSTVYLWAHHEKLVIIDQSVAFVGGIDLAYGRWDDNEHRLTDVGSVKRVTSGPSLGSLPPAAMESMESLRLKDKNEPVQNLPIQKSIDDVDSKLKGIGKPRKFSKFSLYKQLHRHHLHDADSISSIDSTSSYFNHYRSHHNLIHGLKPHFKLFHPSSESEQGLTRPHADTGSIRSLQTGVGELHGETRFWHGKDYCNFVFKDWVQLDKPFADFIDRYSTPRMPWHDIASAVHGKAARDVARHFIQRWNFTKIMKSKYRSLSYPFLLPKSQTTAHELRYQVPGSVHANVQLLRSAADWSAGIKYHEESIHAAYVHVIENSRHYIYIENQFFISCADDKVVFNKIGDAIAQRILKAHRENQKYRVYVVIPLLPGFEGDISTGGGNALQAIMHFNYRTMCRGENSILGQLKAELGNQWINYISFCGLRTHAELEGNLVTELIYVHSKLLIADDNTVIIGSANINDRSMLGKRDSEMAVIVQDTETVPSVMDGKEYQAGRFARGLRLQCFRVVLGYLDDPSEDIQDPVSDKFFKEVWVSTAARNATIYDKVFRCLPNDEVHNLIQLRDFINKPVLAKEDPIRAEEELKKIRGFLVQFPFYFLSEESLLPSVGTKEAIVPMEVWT

For series [2], the system named is U87-MG glioblastoma cells. The series can be described thus: Invasive migration in U87-MG cells. Type of series: cell-based, human. The settings on record: for Invasive migration in U87-MG cells: 100 nM to 10 μM, 48 hours.
Series [3] is described as follows: in vivo. The following applies: mouse, ip, 10 mg/kg.
The target in series [4] is PLD2 (Homo sapiens, UniProt O14939). The settings on record: purified PLD proteins; data comparable to cell-based assay.
Assay in series [5]: not given
The source holds these as a separate data set.

The subject of series [6] is U87-MG cells. The series can be described thus: U87-MG cell viability. The series is classed as cell-based, human. The settings on record: concentrations up to 10 μM, relative to DMSO, 10% FBS.

Entries after “also recorded” stand apart in the source; their conditions may differ. Where only a bound is given, the exact number is not on record here.

Chain of PLD2 (O14939 whole entry, species assumed): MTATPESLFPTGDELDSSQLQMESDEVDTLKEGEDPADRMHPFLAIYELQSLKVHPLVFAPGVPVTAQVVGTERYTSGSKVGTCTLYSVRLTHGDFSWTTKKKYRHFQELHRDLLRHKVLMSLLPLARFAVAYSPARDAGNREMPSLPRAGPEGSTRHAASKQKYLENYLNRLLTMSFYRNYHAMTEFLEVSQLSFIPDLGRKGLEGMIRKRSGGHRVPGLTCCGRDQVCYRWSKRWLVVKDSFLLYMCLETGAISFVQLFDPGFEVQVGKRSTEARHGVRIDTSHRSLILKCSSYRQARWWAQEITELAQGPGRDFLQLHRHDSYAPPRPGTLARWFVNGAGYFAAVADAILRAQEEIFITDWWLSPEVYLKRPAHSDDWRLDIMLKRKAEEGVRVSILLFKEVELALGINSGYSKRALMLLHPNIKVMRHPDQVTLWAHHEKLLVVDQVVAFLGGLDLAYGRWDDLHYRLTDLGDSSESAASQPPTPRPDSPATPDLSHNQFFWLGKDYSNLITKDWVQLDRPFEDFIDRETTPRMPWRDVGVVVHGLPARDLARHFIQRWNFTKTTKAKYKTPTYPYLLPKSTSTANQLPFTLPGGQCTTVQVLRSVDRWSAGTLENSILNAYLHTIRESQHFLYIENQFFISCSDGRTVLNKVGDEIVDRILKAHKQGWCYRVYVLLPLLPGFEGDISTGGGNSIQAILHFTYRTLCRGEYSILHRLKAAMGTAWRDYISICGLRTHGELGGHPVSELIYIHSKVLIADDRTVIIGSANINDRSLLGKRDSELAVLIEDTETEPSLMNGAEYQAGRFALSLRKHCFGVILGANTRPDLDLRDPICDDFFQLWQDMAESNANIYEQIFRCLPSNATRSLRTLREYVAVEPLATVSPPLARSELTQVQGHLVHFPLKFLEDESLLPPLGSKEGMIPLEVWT

The AUC is concentration integrated over time. Low readings indicate low exposure, high ones high exposure. On to `O=C(NCCN1CCC2(CC1)C(=O)NCN2c1cccc(F)c1)c1ccc(F)c(F)c1` [ML298, 3,4-Difluoro-N-(2-(1-(3-fluorophenyl)-4-oxo-1,3,8-triazaspiro[4.5]decan-8yl)ethyl)benzamide], for which the “Human CLHEP” value worked out at 17.8 mL/min/kg. Further, in series [1], the “Concentration up to which PLD1 is not inhibited” value was more than 20 µM and the “PLD1 inhibition” value is on record as “no inhibition of PLD1”. The “Invasive migration in U87-MG cells” value in series [2] is “dose-dependent decrease; also recorded: decreased invasive migration”. For the same compound, the “Dose at which decrease in invasive migration reached statistical significance” value in series [2] (U87-MG cells) amounted to 10 µM. Besides, in series [3], the AUC at 6 h was determined as 1.55 µM·h. For the same compound, in series [4], the “Direct action on PLD2 in biochemical assay” value was “acted directly on PLD2”. The “Rat CLHEP” value in series [5] was determined as 60.9 mL/min/kg. Moreover, the “Effect on U87-MG cell viability” value in series [6] is on record as “no effect”.
`Cc1cccc(N2CNC(=O)C23CCN(C[C@H](C)NC(=O)c2ccc(Br)cc2)CC3)c1` [ML299]: in series [2], the “Invasive migration in U87-MG cells” value was “dose-dependent decrease; also recorded: decreased invasive migration”. Also, in series [6], the “Effect on U87-MG cell viability” value was “no effect”.

Values taken from PMC3632306 (Journal of medicinal chemistry, 2013).
